Source: patent US20210330611A1, “THERAPY FOR NEUROLOGICAL DISEASES/DISORDERS” (priority 2020, published 2021)
Structures can show the parent of a compound that is named as a salt. Where two headings read alike, the source gives them in different places.

Experiments:
[1] = test system: fibrin-induced microglia activation; test: Image-based assay of fibrin-induced microglia activation (HTS and dose response); format: cell-based, rat; settings: primary microglia HTS, fibrin stimulation, compounds at 10 μM; for inhibition at 10 µM: Rattus norvegicus, Microglia, read-out: Fibrin % inhibition
[2] = test system: LPS-induced microglia activation; test: Image-based assay of LPS-induced microglia activation (HTS and dose response); format: cell-based, rat; settings: primary microglia HTS, LPS stimulation, compounds at 10 μM; for inhibition at 10 µM: Rattus norvegicus, Microglia, read-out: LPS % inhibition
[3] = test system: fibrin- and LPS-induced microglia activation; test: cells; format: cell-based, rat; settings: classification by fibrin and LPS inhibition, HTS at 10 μM
primary rat microglia [4] = test system: primary rat microglia
primary rat microglia [5] = test: Cell toxicity (dead cells, size <150 μm2) in coated fibrin (cFib) assay; settings: primary microglia HTS, fibrin assay, dead cells (size <150 μm2), compounds at 10 μM;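 further: share of dead cells sized under 150 µm2 at 10 µM in fibrin-stimulated microglia HTS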

Structure (SMILES)	Fibrin % inhibition ([1]; 10 µM)	LPS % inhibition ([2]; 10 µM)	Quadrant (FIG. 5b) [3]	LPS % cell toxicity (primary rat microglia [4]; rat)	Fibrin % cell toxicity (primary rat microglia [5])	inhibition at 10 µM [1]	inhibition at 10 µM [2]	Fibrin % inhibition [1]	LPS % inhibition [2]	LPS % cell toxicity (primary rat microglia [4])
CN1C[C@H](C(=O)N[C@]2(C)O[C@@]3(O)[C@@H]4CCCN4C(=O)[C@H](Cc4ccccc4)N3C2=O)C=C2c3cccc4[nH]cc(c34)C[C@H]21 [Ergotamine Tartrate]	31%	22%	Q4	1%	0%	–	–	–	–	–
CN1C[C@H](C(=O)N[C@]2(C)O[C@@]3(O)[C@@H]4CCCN4C(=O)[C@H](Cc4ccccc4)N3C2=O)C=C2c3cccc4[nH]cc(c34)C[C@H]21 [Ergotamine]	6%	−4%	Q4	0%	1%	–	–	–	–	–
OC[C@@H](O)[C@@H](O)CO [Erythritol]	–	–	Q4	0%	1%	-25%	10%	–	–	–
CCOC(=O)CCC(=O)O[C@H]1[C@H](O[C@@H]2[C@@H](C)[C@H](O[C@H]3C[C@@](C)(OC)[C@@H](O)[C@H](C)O3)[C@@H](C)C(=O)O[C@H](CC)[C@@](C)(O)[C@H](O)[C@@H](C)C(=O)[C@H](C)C[C@@]2(C)O)O[C@H](C)C[C@@H]1N(C)C [Erythromycin Ethylsuccinate]	–	–	Q4	0%	0%	-14%	14%	–	–	–
CCC(=O)O[C@H]1[C@H](O[C@@H]2[C@@H](C)[C@H](O[C@H]3C[C@@](C)(OC)[C@@H](O)[C@H](C)O3)[C@@H](C)C(=O)O[C@H](CC)[C@@](C)(O)[C@H](O)[C@@H](C)C(=O)[C@H](C)C[C@@]2(C)O)O[C@H](C)C[C@@H]1N(C)C [Erythromycin Propionate]	–	–	Q4	0%	1%	23%	27%	–	–	–
O=C1OC2(c3ccccc31)c1cc(I)c(O)c(I)c1Oc1c2cc(I)c(O)c1I [Erythrosine Sodium]	–	–	Q4	0%	1%	1%	0%	–	–	–
COC(=O)CCc1ccc(OCC(O)CNC(C)C)cc1 (centres unmarked) [Esmolol, Esmolol Hydrochloride]	–	–	Q4	–	1%	–	–	−15%	2%	0%
C[C@]12CC[C@@H]3c4ccc(OC(=O)c5ccccc5)cc4CC[C@H]3[C@@H]1CC[C@@H]2O [Estradiol Benzoate]	–	–	Q4	0%	1%	-3%	8%	–	–	–
C[C@]12CC[C@@H]3c4ccc(O)cc4CC[C@H]3[C@@H]1CC[C@@H]2OC(=O)CCC1CCCC1 [Estradiol Cypionate]	–	–	Q4	0%	0%	-25%	8%	–	–	–
CCC(=O)Oc1ccc2c(c1)CC[C@@H]1[C@@H]2CC[C@]2(C)[C@@H](OC(=O)CC)CC[C@@H]12 [Estradiol Dipropionate]	–	–	Q4	1%	1%	0%	17%	–	–	–
CCCCC(=O)O[C@H]1CC[C@H]2[C@@H]3CCc4cc(O)ccc4[C@H]3CC[C@]12C [Estradiol Valerate]	–	–	Q4	1%	1%	-8%	16%	–	–	–
C[C@]12CC[C@@H]3c4ccc(OC(=O)N(CCCl)CCCl)cc4CC[C@H]3[C@@H]1CC[C@@H]2O [Estramustine]	–	–	Q4	1%	1%	8%	16%	–	–	–
C[C@]12CC[C@@H]3c4ccc(OS(=O)(=O)O)cc4CC[C@H]3[C@@H]1CCC2=O [Estropipate]	–	–	Q4	0%	1%	10%	10%	–	–	–
CN1CCN(C(=O)O[C@H]2c3nccnc3C(=O)N2c2ccc(Cl)cn2)CC1 [Eszopiclone]	–	–	Q4	0%	0%	1%	17%	–	–	–
CCN(CC)C(=O)c1ccc(O)c(OC)c1 [Etamivan]	–	–	Q4	0%	1%	-16%	16%	–	–	–
CCOc1ccc2nc3cc(N)ccc3c(N)c2c1 [Ethacridine Lactate]	–	–	Q4	0%	1%	-64%	-8%	–	–	–
CCOc1ccc(Cc2nccc3cc(OCC)c(OCC)cc23)cc1OCC [Ethaverine Hydrochloride]	–	–	Q4	1%	1%	41%	24%	–	–	–
CCOc1ccccc1C(N)=O [Ethenzamide]	–	–	Q4	0%	1%	-15%	5%	–	–	–
CCN(CC)C(C)CN1c2ccccc2Sc2ccccc21 (centres unmarked) [Ethopropazine]	–	–	Q4	0%	1%	31%	30%	–	–	–
CCC1(C)CC(=O)NC1=O (centres unmarked) [Ethosuximide]	–	–	Q4	0%	0%	-9%	19%	–	–	–
CCOc1ccc2nc(S(N)(=O)=O)sc2c1 [Ethoxzolamide]	–	–	Q4	1%	1%	29%	16%	–	–	–
CCOc1cc(C=O)ccc1O [Ethyl Vanillin]	–	–	Q4	0%	0%	-15%	18%	–	–	–
CCOC(N)=O [Ethyl carbamate]	–	–	Q4	0%	1%	44%	27%	–	–	–
CCOC(=O)c1ccc(O)cc1 [Ethylparaben]	–	–	Q4	1%	1%	-5%	8%	–	–	–
CC(O)(P(=O)(O)O)P(=O)(O)O [Etidronic acid]	–	–	Q4	0%	1%	-16%	18%	–	–	–
Cc1ccc(-c2ncc(Cl)cc2-c2ccc(S(C)(=O)=O)cc2)cn1 [Etoricoxib]	–	–	Q4	0%	1%	15%	-4%	–	–	–
CCOC(=O)/C=C(C)/C=C/C=C(C)/C=C/c1c(C)cc(OC)c(C)c1C [Etretinate]	–	–	Q4	0%	1%	-19%	9%	–	–	–
CC1CC(OC(=O)C(O)c2ccccc2)CC(C)(C)N1C (centres unmarked) [Eucatropine Hydrochloride]	–	–	Q4	0%	1%	1%	24%	–	–	–
